From patent US10428060B2, “PI-kinase inhibitors with anti-infective activity” (The Board of Trustees of the Leland Stanford Junior …, priority 2011, dated 2019)

Assays:
Ebola = test: microbe, parasite or virus in culture; format: cell-based; settings: Zaire ebolavirus, read-out: Ebola EC50
HRV = test: Rhinovirus antiviral assay; format: cell-based; settings: Human rhinovirus sp.
HCV genotype 2a = test: microbe, parasite or virus in culture; format: cell-based; settings: Hepatitis C virus, Huh7.5, read-out: HCV2a EC50
Norovirus = Norovirus antiviral assay; format: cell-based
EV71 = EV71 antiviral assay; format: cell-based; settings: Enterovirus A
PI3K p110g = biological target: T1, PI3K p110g (Homo sapiens, UniProt P48736); test: PI3K p110g kinase assay; format: biochemical
T1 construct: purchased Millipore
Method: (§1) In the assays described here, p110α-p85 complex and p110γ were acquired from Millipore. Assays were performed with Lα-phosphatidylinositol (Avanti) as described in Knight et al. Nat Protoc. 2007; 2 (10):2459-66. Inhibitor series were prepared 10% DMSO as 5× stocks for the assay. Assays of HsVps34 were performed as described in Knight et al, except that the final assay buffer composition used was changed to 20 mM HEPES 7.5, 100 mM NaCl, 3 mM MgCl, 1 mg/mL PI and 44 nM hvps34 was used in the assay. […] COS-7 cells were cultured in 10 cm dishes and transfected at 70% confluence with 10 μg of plasmid DNA (HA-tagged bovine PI4KIIIβ, HA-tagged human PI4KIIIα) using Lipofectamine 2000 and 5 ml Opti-MEM following the manufacturer's instructions. After 5 hours the transfection medium was replaced with 10 ml complete DMEM. 36 hrs post transfection, cells were washed once with 5 ml PBS (pH 7.4) and lysed in 1 ml of lysis buffer (1) on ice. Lysates were collected by scraping and after 15 min they were centrifuged at 13,000 rpm for 10 min. To the lysates was added 200 μl of protein G Sepharose 4 fast flow beads that were prewashed with PBS and lysis buffer and 2 μg of anti-HA antibody. The tubes were then incubated overnight at 4 degrees C. in a tube rotator. The Sepharose beads in the lysate were washed twice with 150 mM NaCl in RIPA buffer, twice with RIPA buffer and once with kinase buffer (50 mM Tris/HCl, pH 7.5, 20 mM MgCl2, 1 mM EGTA, 1 mM PtdIns, 0.4% Triton X-100, 0.5 mg/mL BSA) and finally the beads were resuspended in 200 μL kinase buffer. Kinase reactions were run in a mixture of 45 μL of PI buffer (1 mM PI in kinase buffer), 10 μL of immunoprecipitated beads, 2 µL of inhibitors (dissolved and diluted in DMSO) or DMSO and 5 μL of [γ-^32P]-ATP (1 mM and 2 μCi/tube). The immunoprecipitates in PI buffer were pre-incubated with the drugs for 20 min prior the initiation of kinase reaction by adding ATP and the reactions were carried out for 30 min in 15 ml polypropolyne tubes. Reactions were terminated by addition of 3 ml of CHCl3:CH3OH:HCl (200:100:0.75) followed by 0.6 ml of 0.6N HCl to induce phase separation. The mixtures were vortexed, centrifuged at 2000 rpm for 2 min and the upper phase was discarded. To the lower phase was added 1.5 ml of CHCl3:CH3OH:0.6N HCl (3:48:47) and the mixture vortexed and centrifuged at 2000 rpm for 2 min. The lower phase was then transferred to counting vials and evaporated. Samples were counted in a scintillation beta counter after adding 5 ml of Instafluor (Perkin-Elmer).
(§2) PI-kinase assay: Compounds are tested in C.1.1. PI kinase assays as described by Shokat et al., “A membrane capture assay for lipid kinase activity.” Nat. Protoc. 2007; 2(10):2459-66.

PI3KC2G = biological target: T2, PI3KC2G (Homo sapiens, UniProt O75747); test: PI3KC2G kinase assay; format: biochemical
T2 sequence (O75747 1-1486): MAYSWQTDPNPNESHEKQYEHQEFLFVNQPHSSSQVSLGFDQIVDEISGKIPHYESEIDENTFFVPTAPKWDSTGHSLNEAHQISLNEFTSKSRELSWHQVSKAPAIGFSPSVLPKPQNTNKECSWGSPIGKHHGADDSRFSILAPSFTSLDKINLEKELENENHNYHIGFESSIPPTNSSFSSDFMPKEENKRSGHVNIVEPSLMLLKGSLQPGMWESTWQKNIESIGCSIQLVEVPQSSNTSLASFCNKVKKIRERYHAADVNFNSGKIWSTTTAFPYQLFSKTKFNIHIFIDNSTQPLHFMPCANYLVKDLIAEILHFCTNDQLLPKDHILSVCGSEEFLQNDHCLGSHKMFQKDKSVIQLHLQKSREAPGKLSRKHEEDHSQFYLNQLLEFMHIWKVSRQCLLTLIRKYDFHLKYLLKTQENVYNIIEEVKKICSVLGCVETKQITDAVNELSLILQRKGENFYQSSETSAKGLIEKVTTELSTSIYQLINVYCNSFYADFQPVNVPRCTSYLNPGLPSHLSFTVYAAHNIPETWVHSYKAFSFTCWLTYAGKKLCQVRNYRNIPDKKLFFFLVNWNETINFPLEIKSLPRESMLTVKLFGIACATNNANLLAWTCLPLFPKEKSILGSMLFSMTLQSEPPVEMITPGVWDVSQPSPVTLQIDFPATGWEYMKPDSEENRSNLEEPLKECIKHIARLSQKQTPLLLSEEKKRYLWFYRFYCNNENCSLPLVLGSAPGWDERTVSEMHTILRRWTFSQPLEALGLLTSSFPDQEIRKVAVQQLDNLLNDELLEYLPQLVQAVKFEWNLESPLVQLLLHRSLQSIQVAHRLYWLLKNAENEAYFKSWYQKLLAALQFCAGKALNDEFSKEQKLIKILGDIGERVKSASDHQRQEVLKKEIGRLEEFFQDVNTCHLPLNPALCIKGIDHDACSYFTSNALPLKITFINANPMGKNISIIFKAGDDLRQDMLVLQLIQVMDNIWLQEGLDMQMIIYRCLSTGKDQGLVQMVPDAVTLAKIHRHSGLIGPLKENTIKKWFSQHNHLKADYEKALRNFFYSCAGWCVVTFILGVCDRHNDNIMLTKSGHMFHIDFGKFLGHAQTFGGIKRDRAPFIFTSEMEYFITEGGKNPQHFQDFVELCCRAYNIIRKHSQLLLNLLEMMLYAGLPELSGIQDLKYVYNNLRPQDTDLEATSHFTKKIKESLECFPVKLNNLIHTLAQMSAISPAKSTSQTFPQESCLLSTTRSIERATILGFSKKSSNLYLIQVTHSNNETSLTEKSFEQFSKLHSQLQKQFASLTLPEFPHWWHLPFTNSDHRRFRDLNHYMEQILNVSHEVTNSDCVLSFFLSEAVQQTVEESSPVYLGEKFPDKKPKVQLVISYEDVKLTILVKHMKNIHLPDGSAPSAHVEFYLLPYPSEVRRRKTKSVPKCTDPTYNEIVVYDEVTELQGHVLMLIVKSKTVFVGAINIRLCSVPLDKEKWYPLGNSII

PI4KIIIB = biological target: T3, PI4KIIIB (Bos taurus, UniProt O02810); test: PI4KIIIB kinase assay; format: biochemical, bovine
T3 construct: made in house; host or cells: COS-7 cells, transient transfection, anti-HA immunoprecipitate on protein G Sepharose beads
Method: as §1, with “2007; 2 (10):2459-66.” left out, “for” for “for the assay. Assays of HsVps34 were performed as described in Knight et al, except that the final assay buffer composition used was changed to 20 mM HEPES 7.5, 100 mM NaCl, 3 mM MgCl, 1 mg/mL PI and 44 nM hvps34 was used in”, “Lysates were collected by scraping and after 15 min they were centrifuged at 13,000 rpm for 10 min.” left out, “The Sepharose beads in the lysate were washed twice with 150 mM NaCl in RIPA buffer, twice with RIPA buffer and once with kinase buffer (50 mM Tris/HCl, pH 7.5, 20 mM MgCl2, 1 mM EGTA, 1 mM PtdIns, 0.4% Triton X-100, 0.5 mg/mL BSA) and finally the beads were resuspended in 200 μL kinase buffer.” left out
PI-kinase assay: Compounds are tested in C.1.1. PI kinase assays as described by Shokat et al., “A membrane capture assay for lipid kinase activity.” Nat. Protoc.

PI4KIIIA = biological target: T4, PI4KIIIA (Homo sapiens, UniProt P42356); test: PI4KIIIA kinase assay; format: biochemical
T4 construct: made in house; host or cells: COS-7 cells, transient transfection, anti-HA immunoprecipitate on protein G Sepharose beads
Method: as §1, with “Reactions were terminated by addition of 3 ml of CHCl3:CH3OH:HCl (200:100:0.75) followed by 0.6 ml of 0.6N HCl to induce phase separation. The mixtures were vortexed, centrifuged at 2000 rpm for 2 min and the upper phase was discarded. To the lower phase was added 1.5 ml of CHCl3:CH3OH:0.6N HCl (3:48:47) and the mixture vortexed and centrifuged at 2000 rpm for 2 min. The lower phase was then transferred to counting vials and evaporated.” left out, “(Perkin-Elmer). […]” for “(Perkin-Elmer).”

PI3KC2B = PI3KC2B (Homo sapiens, UniProt O00750); test: PI3KC2B kinase assay; format: biochemical
Method: as §2

HCV replicon = test: Resistance selection in HCV replicon system; format: cell-based

T1 sequence (P48736 whole entry): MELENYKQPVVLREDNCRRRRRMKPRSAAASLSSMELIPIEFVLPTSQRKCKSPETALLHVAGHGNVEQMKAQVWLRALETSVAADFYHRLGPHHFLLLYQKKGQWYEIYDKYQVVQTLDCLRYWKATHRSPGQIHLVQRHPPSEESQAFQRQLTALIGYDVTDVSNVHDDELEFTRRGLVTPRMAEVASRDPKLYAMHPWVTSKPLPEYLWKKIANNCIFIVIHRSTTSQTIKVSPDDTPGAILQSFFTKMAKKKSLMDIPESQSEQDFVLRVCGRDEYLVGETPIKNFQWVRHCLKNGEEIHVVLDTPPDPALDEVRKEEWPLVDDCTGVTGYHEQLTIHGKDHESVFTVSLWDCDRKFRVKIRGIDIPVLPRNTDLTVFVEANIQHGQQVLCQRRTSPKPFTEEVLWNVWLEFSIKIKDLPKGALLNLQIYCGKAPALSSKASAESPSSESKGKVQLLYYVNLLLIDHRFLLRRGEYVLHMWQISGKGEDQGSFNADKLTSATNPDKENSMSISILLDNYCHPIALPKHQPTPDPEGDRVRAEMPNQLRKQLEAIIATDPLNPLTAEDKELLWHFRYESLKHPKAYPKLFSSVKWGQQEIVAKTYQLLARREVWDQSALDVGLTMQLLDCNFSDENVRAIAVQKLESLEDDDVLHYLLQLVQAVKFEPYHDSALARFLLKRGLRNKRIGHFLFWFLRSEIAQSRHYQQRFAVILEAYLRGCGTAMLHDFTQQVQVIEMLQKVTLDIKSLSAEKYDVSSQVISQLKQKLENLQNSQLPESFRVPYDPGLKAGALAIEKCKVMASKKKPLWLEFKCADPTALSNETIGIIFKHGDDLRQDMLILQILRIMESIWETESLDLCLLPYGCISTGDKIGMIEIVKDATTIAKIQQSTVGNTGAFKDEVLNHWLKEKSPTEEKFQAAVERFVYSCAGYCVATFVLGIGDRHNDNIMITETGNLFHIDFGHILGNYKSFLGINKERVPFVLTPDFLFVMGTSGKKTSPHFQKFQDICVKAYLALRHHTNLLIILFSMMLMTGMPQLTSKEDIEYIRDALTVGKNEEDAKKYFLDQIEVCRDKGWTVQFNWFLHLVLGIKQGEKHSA
Chain of PI3KC2B (O00750 whole entry): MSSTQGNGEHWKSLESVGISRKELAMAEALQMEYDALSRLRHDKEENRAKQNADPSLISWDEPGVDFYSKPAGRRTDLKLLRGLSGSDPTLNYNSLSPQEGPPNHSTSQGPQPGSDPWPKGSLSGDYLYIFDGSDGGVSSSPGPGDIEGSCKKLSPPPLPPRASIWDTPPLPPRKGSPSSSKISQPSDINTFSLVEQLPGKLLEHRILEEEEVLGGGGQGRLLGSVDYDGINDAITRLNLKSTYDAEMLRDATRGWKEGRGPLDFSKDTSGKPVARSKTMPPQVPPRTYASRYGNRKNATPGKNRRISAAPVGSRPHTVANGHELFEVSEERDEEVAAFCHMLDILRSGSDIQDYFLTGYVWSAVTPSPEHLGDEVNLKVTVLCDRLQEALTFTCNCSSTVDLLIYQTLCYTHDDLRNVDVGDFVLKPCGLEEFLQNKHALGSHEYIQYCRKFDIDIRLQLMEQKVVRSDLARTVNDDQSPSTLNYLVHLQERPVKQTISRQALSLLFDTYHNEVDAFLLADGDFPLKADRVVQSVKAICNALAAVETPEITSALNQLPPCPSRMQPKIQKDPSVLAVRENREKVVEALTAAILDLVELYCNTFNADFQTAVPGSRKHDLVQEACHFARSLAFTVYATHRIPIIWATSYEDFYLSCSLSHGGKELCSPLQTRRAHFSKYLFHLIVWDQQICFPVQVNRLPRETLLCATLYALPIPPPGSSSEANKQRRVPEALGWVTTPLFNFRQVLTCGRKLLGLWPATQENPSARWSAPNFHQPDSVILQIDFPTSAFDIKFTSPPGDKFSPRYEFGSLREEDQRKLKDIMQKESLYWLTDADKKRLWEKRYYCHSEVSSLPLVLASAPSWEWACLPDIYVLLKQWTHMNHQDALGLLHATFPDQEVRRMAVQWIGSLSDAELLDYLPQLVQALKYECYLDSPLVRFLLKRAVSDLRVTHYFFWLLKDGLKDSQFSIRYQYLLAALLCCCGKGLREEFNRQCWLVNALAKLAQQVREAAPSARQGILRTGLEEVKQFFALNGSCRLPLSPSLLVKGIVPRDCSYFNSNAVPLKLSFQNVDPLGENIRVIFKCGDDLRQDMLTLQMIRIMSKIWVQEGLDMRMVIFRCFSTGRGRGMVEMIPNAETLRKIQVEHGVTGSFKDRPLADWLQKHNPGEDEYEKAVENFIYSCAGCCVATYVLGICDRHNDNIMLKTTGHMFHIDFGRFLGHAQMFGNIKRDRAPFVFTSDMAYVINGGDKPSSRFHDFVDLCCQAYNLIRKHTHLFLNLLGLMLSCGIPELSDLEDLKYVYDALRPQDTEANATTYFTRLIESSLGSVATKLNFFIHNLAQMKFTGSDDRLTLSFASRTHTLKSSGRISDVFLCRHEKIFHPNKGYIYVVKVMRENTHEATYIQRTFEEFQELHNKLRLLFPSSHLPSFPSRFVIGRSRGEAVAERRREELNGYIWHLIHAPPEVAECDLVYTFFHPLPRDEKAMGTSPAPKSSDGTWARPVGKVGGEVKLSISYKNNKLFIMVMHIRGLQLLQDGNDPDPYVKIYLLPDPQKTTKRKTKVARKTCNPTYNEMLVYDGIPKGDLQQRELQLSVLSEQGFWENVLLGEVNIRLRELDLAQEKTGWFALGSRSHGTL
T3 sequence (O02810 whole entry): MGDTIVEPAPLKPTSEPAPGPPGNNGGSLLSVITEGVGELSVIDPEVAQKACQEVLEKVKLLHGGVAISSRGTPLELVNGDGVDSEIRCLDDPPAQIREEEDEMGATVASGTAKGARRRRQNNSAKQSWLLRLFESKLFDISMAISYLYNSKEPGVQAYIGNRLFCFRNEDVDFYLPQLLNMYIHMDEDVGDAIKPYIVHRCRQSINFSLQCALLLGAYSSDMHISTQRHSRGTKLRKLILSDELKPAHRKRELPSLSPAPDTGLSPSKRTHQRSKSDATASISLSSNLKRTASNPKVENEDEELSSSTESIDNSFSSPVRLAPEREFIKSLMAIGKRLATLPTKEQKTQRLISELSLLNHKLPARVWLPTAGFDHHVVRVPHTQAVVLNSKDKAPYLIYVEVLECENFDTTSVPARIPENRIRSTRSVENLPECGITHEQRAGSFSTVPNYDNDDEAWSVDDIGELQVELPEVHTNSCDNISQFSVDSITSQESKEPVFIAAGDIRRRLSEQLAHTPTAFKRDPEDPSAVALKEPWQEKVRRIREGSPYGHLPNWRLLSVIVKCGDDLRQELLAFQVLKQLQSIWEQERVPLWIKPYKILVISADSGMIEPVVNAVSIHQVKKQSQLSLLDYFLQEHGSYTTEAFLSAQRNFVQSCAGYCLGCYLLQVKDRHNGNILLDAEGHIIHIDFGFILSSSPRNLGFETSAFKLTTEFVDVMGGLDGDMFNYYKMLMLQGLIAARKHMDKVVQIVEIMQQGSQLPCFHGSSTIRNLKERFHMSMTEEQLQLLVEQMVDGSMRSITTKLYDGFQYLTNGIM

| SMILES | EC50 (Ebola) [nM] | EC50 (HRV) [nM] | EC50 (HCV genotype 2a) [nM] | EC50 (Norovirus) [nM] | EC50 (EV71) [nM] | IC50 (PI3K p110g) [nM] | IC50 (PI3KC2G) [nM] | IC50 (PI4KIIIB) [nM] | IC50 (PI4KIIIA) [nM] | IC50 (PI3KC2B) [nM] | Selection of resistance (HCV replicon) |
| --- | --- | --- | --- | --- | --- | --- | --- | --- | --- | --- | --- |
| COc1ccc(-c2sc(NCC3CCCCC3)nc2C)cc1S(=O)(=O)Nc1cccc(C(C)(C)C)c1 [Compound S-32, N-(3-tert-butylphenyl)-5-[2-(cyclohexylmethylamino)-4-methyl-thiazol-5-yl]-2-methoxy-benzenesulfonamide; 2,2,2-trifluoroacetic acid] | 1000 to 10000 | < 1 | 1000 to 10000 | – | – | – | – | – | – | – | – |
| COc1ccc(-c2sc(NC3CCCCCC3)nc2C)cc1S(=O)(=O)Nc1c(C)cccc1C [Compound S-98, 5-[2-(cycloheptylamino)-4-methyl-thiazol-5-yl]-N-(2,6-dimethylphenyl)-2-methoxy-benzenesulfonamide; 2,2,2-trifluoroacetic acid] | – | < 1 | 1000 to 10000 | 1000 to 10000 | < 1 | > 10000 | – | – | – | – | – |
| COc1ccc(-c2sc(NCCC3CCCCC3)nc2C)cc1S(=O)(=O)NC1CCC(O)C1 (centres unmarked) [Compound S-214, 5-[2-(2-cyclohexylethylamino)-4-methyl-thiazol-5-yl]-N-(3-hydroxycyclopentyl)-2-methoxy-benzenesulfonamide] | – | – | – | – | – | > 10000 | > 10000 | 100 to 1000 | > 10000 | – | – |
| COc1ccc(-c2sc(NC(=O)CC3CCOCC3)nc2C)cc1S(=O)(=O)Nc1ccc(O)cc1 [Compound S-227, N-[5-[3-[(4-hydroxyphenyl)sulfamoyl]-4-methoxy-phenyl]-4-methyl-thiazol-2-yl]-2-tetrahydropyran-4-yl-acetamide] | 100 to 1000 | 1 to 100 | 1 to 100 | 100 to 1000 | < 1 | > 10000 | – | – | – | > 10000 | – |
| COc1ccc(-c2sc(NC(=O)C3CCCC3)nc2C)cc1S(=O)(=O)Nc1ccc(O)cc1 [PT423] | – | – | – | – | – | – | – | – | – | – | resistance was not able to be selected |
